Results: PMC7927014, “Novel Small Molecule Hsp90/Cdc37 Interface Inhibitors Indirectly Target K-Ras-Signaling” (Cancers, 2021)

Legend:
[1] = molecular target: T1, Hsp90/Cdc37 (Homo sapiens, UniProt P07900); assay: Hsp90/Cdc37 split Renilla luciferase assay, full length Hsp90 (cell lysate; IC50 and 20 μM validation); format: biochemical; conditions: for normalized RLU / Average RLU: MolPort Screening-3, tested concentration of drugs 20 μM; for normalized RLU: RLU normalized to DMSO (=1.00); for Average RLU: average of 3 wells (DMSO 248028); for IC50: full length Hsp90, split Renilla luciferase assay, cell lysate
T1 construct: The Hsp90/Cdc37 split Renilla luciferase assay using the full length Hsp90 for the compound screening was described previously; expressed in transfected cells; host or cells: HEK293 EBNA cells, cleared lysates
Description: In the second in silico screening of the FIMM database, we employed the four identified chemical scaffolds (Figure S2B) for the visual inspection of the FIMM compound library. […] All of the purchased compounds were validated in vitro at 20 μM using the split Renilla luciferase assay.
The Hsp90/Cdc37 split Renilla luciferase assay using the full length Hsp90 for the compound screening was described previously. […] After 48 h, the cells were trypsinized and washed with PBS. The harvested cells were lysed in 1 mL of the 1x lysis buffer provided in the Renilla Luciferase Reporter Assay System Kit from Promega (cat. E2820), and were incubated on ice for 10 min. The cell lysates were then cleared by centrifugation at 13,000× g for 1 min. […] After this, the screening/test compounds or DMSO—as indicated—were added to each well. In total, 5 µL NRL-Hsp90- or NRL-N-Hsp90-lysate was added to each well, one row at a time. Subsequently, the plate was incubated for 5 min at room temperature (RT). […] Just before the reading, 20 µL assay buffer containing 2× Renilla luciferase substrate (coelenterazine) was added. For the FIMM screening, sample wells were read on a PHERAstar plate reader (BMG LABTECH) at a gain level of 4000, after 10 s shaking, using a hypomorph of NRL-Hsp90. For the subsequent validations of the compounds, sample wells with the above-described assay constructs were read using a synergy H1 Hybrid Multi-Mode reader (BioTek) in the luminescence detection mode, as described previously in detail.

[2] = system: Hsp90 clients (C-Raf, Akt, ERK); assay: Western blotting of Hsp90 client proteins; format: cell-based; conditions: Western blot, 24 h; SK-BR-3, MDA-MB-231, MIA PaCa-2, HCC-44 (conglobatin A: MDA-MB-231)
Description: The cells were trypsinized, washed with PBS, and lysed in RIPA buffer (cat no. 89900, ThermoFisher Scientific) containing protease and phosphatase inhibitors (cat. no. A32959, ThermoFisher Scientific) and 1 mM phenylmethylsulfonyl fluoride (PMSF). The cells in the RIPA buffer were placed on ice for 20 min, and were then sonicated in ice cold water for 5 min. The lysates were centrifuged at 4 °C, and their protein was quantified using a BCA kit (cat. no. 23225, ThermoFisher Scientific). Equal amounts of protein were separated by 10% SDS-PAGE, and were then transferred onto a nitrocellulose membrane (cat. no. NBA 083C001EA, Protran) using a wet transfer system (Bio-Rad) or semidry Transferblot Turbo Transfer System (Bio-Rad). After the transfer, the membranes were blocked for 30 min in 5% skimmed milk dissolved in 1× TBST, and then incubated with 1:2000 primary antibodies in 5% BSA in TBST at 4 °C overnight.
The primary antibodies against HER-2 (cat no. MA5-140579) and Hsp70 (cat. no. MA3-006) were purchased from ThermoFisher Scientific; C-Raf (cat. no. sc-133); the galectin-3 (cat. no. sc-20157), Hsp90 (cat. no. sc-69703), Cdc37 (cat. no. sc-13129) were obtained from Santa Cruz Biotechnology; the Akt (cat. no. 9272S), ERK1/2 (cat. no. 9102S), and pERK1/2 (cat. no. 9101S) were obtained from Cell Signaling Technology; the HIF-1α (cat. no. NB-100-134) was obtained from Novus Biologicals; and the β-actin (cat. no. A1978) was obtained from Sigma-Aldrich.
The next day, the membranes were washed three times in TBST for 10 min, and then incubated with secondary antibodies (1:5000) diluted in 5% skimmed milk in TBST for 1 h at RT. As secondary antibodies, we employed HRP-conjugated anti-mouse (cat. no. sc-2954, Santa Cruz Biotechnology) and anti-rabbit antibodies (cat. no. HAF008, R&D System). The protein bands were detected with a ChemiDoc MP instrument (Bio-Rad) after treatment with an ECL reagent (cat. no. 170-5061, BioRad). All of the antigens and molecular weights in kDa are labelled next to the blots on the figures. Uncropped Western blot data are attached as Figure S6.

[3] = system: HCC-44 cells; assay: Tumorosphere assay (low adhesion, serum-free 3D spheroid culture); format: cell-based; conditions: Homo sapiens, HCC44; HCC-44 (lung, G12C), low attachment, serum-free, 72 h; read-out: 3D spheroid formation IC50
Description: (§1) Per well, 2000 cells were seeded in flat bottom 96-well suspension culture plates (cat. no. 655185, Cellstar, Greiner Bio-One) in 100 µL DMEM or RPMI media containing 1× B27 (cat. no. 17504044, Gibco, Thermo Fisher Scientific), 25 ng/mL EGF (cat. no. E9644, Sigma-Aldrich), and 25 ng/mL FGF (cat. no. RP-8628, Thermo Fisher Scientific), 20% MethoCult H4100 (cat. no. 04100, […] Technologies). After 2 days, 50 µL media containing 0.3% DMSO or 3× the concentration of the indicated compounds were added to the wells in a 1:2 dilution-series, starting at 100 µM. After 72 h of treatment, 10% (v/v) alamarBlue reagent (cat. no. DAL1100, Thermo Fisher Scientific) was added to each well. Then, the fluorescence intensity (excitation 560 nm and emission 590 nm) was measured after 4 h using a H1 Hybrid Multi-Mode reader (BioTek).

[4] = system: MDA-MB-231 cells; assay: as above; format: cell-based; conditions: Homo sapiens, MDA-MB-231, 72 h; read-out: 3D spheroid formation IC50
Description: as §1

[5] = system: Hsp90, Hsp70; assay: Western blotting of Hsp90 and Hsp70 (heat shock response); format: cell-based; conditions: Western blot, 24 h; four cancer cell lines; 17-AAG 2 μM
Description: The cells in the RIPA buffer were placed on ice for 20 min, and were then sonicated in ice cold water for 5 min. […] Equal amounts of protein were separated by 10% SDS-PAGE, and were then transferred onto a nitrocellulose membrane (cat. no. NBA 083C001EA, Protran) using a wet transfer system (Bio-Rad) or semidry Transferblot Turbo Transfer System (Bio-Rad). After the transfer, the membranes were blocked for 30 min in 5% skimmed milk dissolved in 1× TBST, and then incubated with 1:2000 primary antibodies in 5% BSA in TBST at 4 °C overnight.
The next day, the membranes were washed three times in TBST for 10 min, and then incubated with secondary antibodies (1:5000) diluted in 5% skimmed milk in TBST for 1 h at RT. […] All of the antigens and molecular weights in kDa are labelled next to the blots on the figures. Uncropped Western blot data are attached as Figure S6.

Compound: C/C1=C\[C@H](C)C[C@H](C)[C@H](Cc2cnco2)OC(=O)/C(C)=C/[C@H](C)C[C@H](C)[C@H](Cc2cnco2)OC1=O [conglobatin A, reference compound]
- normalized RLU [1]: 0.40
- Average RLU [1]: 98821 RLU
- IC50 [1]: 23 ± 6 µM
- expression of Hsp90 clients (C-Raf, Akt, ERK; pERK) [2]: decreased pERK and Akt levels

Compound: CCOc1ccc(C(=O)c2ccc(O)c(O)c2O)cc1 [×1540, 2,3,4-TRIHYDROXY-4'-ETHOXYBENZOPHENONE]
- IC50 [1]: 44 ± 18 µM
- IC50 [3]: 52 ± 6 µM
- IC50 [4]: 58 ± 5 µM
- expression of Hsp90 clients (C-Raf, Akt, ERK; pERK) [2]: dose-dependently decreased
- induction of Hsp90 or Hsp70 expression (heat shock response) [5]: not inducing

Compound: N=C(CSS(=O)(=O)O)NCC12CC3CC(CC(C3)C1)C2 [×6506, [({N-[(adamantan-1-yl)methyl]carbamimidoyl}methyl)sulfanyl]sulfonic acid]
- normalized RLU [1]: 0.11
- Average RLU [1]: 26657 RLU
- IC50 [1]: 5 ± 1 µM
- IC50 [3]: 67 ± 5 µM
- IC50 [4]: 26 ± 1 µM
- expression of Hsp90 clients (C-Raf, Akt, ERK; pERK) [2]: dose-dependently decreased
- induction of Hsp90 or Hsp70 expression (heat shock response) [5]: not inducing
